Measured values reported in patent US11236055B2 (Venenum Biodesign, LLC, priority 2016, dated 2022).
Counter-ions that a name gives are not always drawn.

How the values were obtained:
human TGR5 receptor = molecular target: T1, human TGR5 receptor (Homo sapiens, UniProt Q8TDU6); test: Human TGR5 cAMP production assay; format: cell-based; conditions: human TGR5, luminescent cAMP assay; coded A-D; read-out: Human TGR5 Lum. cAMP Activity (EC50)
T1 construct: host or cells: CHO-K1 (hTGR5-CHO cells)
T1 sequence (Q8TDU6 1-330): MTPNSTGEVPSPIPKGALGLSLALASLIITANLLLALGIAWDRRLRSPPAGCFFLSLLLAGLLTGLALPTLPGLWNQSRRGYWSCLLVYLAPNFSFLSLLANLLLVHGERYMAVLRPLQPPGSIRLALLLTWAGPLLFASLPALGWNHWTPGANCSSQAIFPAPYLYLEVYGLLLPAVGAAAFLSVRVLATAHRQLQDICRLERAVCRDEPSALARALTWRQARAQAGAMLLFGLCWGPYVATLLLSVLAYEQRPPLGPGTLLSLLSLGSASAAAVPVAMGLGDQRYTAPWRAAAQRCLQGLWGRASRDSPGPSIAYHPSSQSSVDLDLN
Summary of the method: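 CHO-K1 cells stably expressing human TGR5, with IBMX and cAMP antibody, were exposed to half-log serially diluted compound for 1 h at room temperature. cAMP measured by enzyme-fragment complementation luminescence (XS+ kit) after overnight incubation; EC50 values reported.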

mouse TGR5 receptor = molecular target: T2, mouse TGR5 receptor (Mus musculus, UniProt Q80SS6); test: Mouse TGR5 cAMP production assay (HTRF, Cisbio cAMP HiRange); format: cell-based; conditions: HEK293-EBNA cells overexpressing mouse TGR5, HTRF cAMP HiRange; coded A-D
T2 construct: expressed in transfected cells; host or cells: HEK293-EBNA (293 c18, ATCC CRL10852), Hygromycin B selection
T2 sequence (Q80SS6 1-329): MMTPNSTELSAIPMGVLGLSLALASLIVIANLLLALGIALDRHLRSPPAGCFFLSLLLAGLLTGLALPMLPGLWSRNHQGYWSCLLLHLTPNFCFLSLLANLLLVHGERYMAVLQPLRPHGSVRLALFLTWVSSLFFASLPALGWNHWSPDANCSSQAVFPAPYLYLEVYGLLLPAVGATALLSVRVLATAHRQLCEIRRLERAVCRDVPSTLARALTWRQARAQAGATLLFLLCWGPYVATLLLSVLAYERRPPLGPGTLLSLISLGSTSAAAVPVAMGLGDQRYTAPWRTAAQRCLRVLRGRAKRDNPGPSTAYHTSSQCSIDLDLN
Summary of the method: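 cAMP read by HTRF competition after 1 h room-temperature compound exposure of mouse TGR5-overexpressing HEK293-EBNA cells. Cells were suspended in serum-free DMEM containing 500 μM IBMX; compounds ran as 12-point half-log dilutions in duplicate; EC50 derived.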

| EC50 (human TGR5 receptor) | EC50 (mouse TGR5 receptor) | Compound |
| --- | --- | --- |
| 100 to 999 nM | 100 to 999 nM | CC(=O)N(CCCCN([C@@H](C)c1cccc(-c2ccncc2C)c1)S(=O)(=O)c1cccc(Cl)c1C)CCC(=O)O [Compound 34, (S)-3-(N-(4-(3-chloro-2-methyl-N-(1-(3-(3-methylpyridin-4-yl)phenyl)ethyl)phenylsulfonamido)butyl)acetamido)propanoic acid] |
| < 100 nM | < 100 nM | CCc1cnccc1-c1cccc(C2CNCCN2S(=O)(=O)c2cccc(Cl)c2C)c1 (racemic) [Compound 43, (+/−) 1-((3-chloro-2-methylphenyl)sulfonyl)-2-(3-(3-ethylpyridin-4-yl)phenyl)piperazine hydrochloride] |
| 100 to 999 nM | < 100 nM | Cc1cnccc1-c1cccc(C(C)(C)N(CCCC(=O)N[C@@H](CS(=O)(=O)O)C(=O)O)S(=O)(=O)c2cccc(Cl)c2C)c1 [Compound 21AA, (R)-2-(4-(3-chloro-2-methyl-N-(2-(3-(3-methylpyridin-4-yl)phenyl)propan-2-yl)phenylsulfonamido)butanamido)-3-sulfopropanoic acid] |
| < 100 nM | 100 to 999 nM | Cc1cnccc1-c1cccc([C@H](C)N(CCCC(=O)NCCS(=O)(=O)O)S(=O)(=O)c2ccccc2C)c1 [Compound 20AQ, (S)-2-(4-(2-methyl-N-(1-(3-(3-methylpyridin-4-yl)phenyl)ethyl)phenylsulfonamido)butanamido)ethanesulfonic acid] |
| < 100 nM | < 100 nM | CCc1cnccc1-c1cccc([C@H](C)N(CCCC(=O)NCCNS(=O)(=O)NCC(=O)O)S(=O)(=O)c2cccc(Cl)c2C)c1 [Compound 38AA, (S)-2-((N-(2-(4-(3-chloro-N-(1-(3-(3-ethylpyridin-4-yl)phenyl)ethyl)-2-methylphenylsulfonamido)butanamido)ethyl)sulfamoyl)amino)acetic acid] |
| < 100 nM | 100 to 999 nM | Cc1cnccc1-c1cccc(C(C)(C)NS(=O)(=O)c2cc(Br)ccc2C)c1 [Compound 2BW] |
| < 100 nM | < 100 nM | CCc1cnccc1-c1cccc([C@H](C)N(CCCCNC(=O)[C@@H](N)CS(=O)(=O)O)S(=O)(=O)c2cccc(Cl)c2C)c1 [Compound 31AD, (R)-2-amino-3-((4-(3-chloro-N-((S)-1-(3-(3-ethylpyridin-4-yl)phenyl)ethyl)-2-methylphenylsulfonamido)butyl)amino)-3-oxopropane-1-sulfonic acid] |
| < 100 nM | 100 to 999 nM | CCc1cnccc1-c1cccc([C@H](C)N(CCCC(=O)NCC[N+](C)(C)C)S(=O)(=O)c2cccc(Cl)c2C)c1 [Compound 27AE, (S)-2-(4-(3-chloro-N-(1-(3-(3-ethylpyridin-4-yl)phenyl)ethyl)-2-methylphenylsulfonamido)butanamido)-N,N,N-trimethylethanaminium] |
| 1000 to 30000 nM | 100 to 999 nM | Cc1cnccc1-c1cccc(C(CCC(=O)O)NS(=O)(=O)c2ccccc2C(F)(F)F)c1 (stereo not shown) [Compound 19, 4-(3-(3-methylpyridin-4-yl)phenyl)-4-(2-(trifluoromethyl)phenylsulfonamido)butanoic acid] |
| 1000 to 30000 nM | 1000 to 30000 nM | CC(C)(NS(=O)(=O)c1ccccc1C(F)(F)F)c1cccc(-c2cnc3nccn3c2)c1 [Compound 5AM, N-(2-(3-(imidazo [1,2-a]pyrimidin-6-yl)phenyl)propan-2-yl)-2-(trifluoromethyl)benzenesulfonamide] |
| 1000 to 30000 nM | 1000 to 30000 nM | Cc1c(Cl)cccc1S(=O)(=O)N1CCN(C(=O)CCC(=O)O)CC1c1cccc(-c2ccncc2)c1 (stereo not shown) [Compound 46AF, 4-(4-((3-chloro-2-methylphenyl)sulfonyl)-3-(3-(pyridin-4-yl)phenyl)piperazin-1-yl)-4-oxobutanoic acid] |
| 100 to 999 nM | 100 to 999 nM | Cc1cnccc1-c1cccc(C(C)N(CCCC(=O)NCCSO)S(=O)(=O)c2cccc(C(F)(F)F)c2)c1 (stereo not shown) [Compound 20BD, N-(2-(hydroxythio)ethyl)-4-(N-(1-(3-(3-methylpyridin-4-yl)phenyl)ethyl)-3-(trifluoromethyl)phenylsulfonamido)butanamide] |
| < 100 nM | < 100 nM | CCc1cnccc1-c1cc(O)cc(C(C)(C)NS(=O)(=O)c2ccccc2C(F)(F)F)c1 [Compound 22, N-(2-(3-(3-Ethylpyridin-4-yl)-5-hydroxyphenyl)propan-2-yl)-2-(trifluoromethyl)benzenesulfonamide] |
| 1000 to 30000 nM | 1000 to 30000 nM | CN(C)c1cc(-c2cccc(C(C)(C)NS(=O)(=O)c3ccccc3C(F)(F)F)c2)ccn1 [Compound 6AB, N-(2-(3-(2-(dimethylamino)-pyridin-4-yl)phenyl)propan-2-yl)-2-(trifluoromethyl)benzenesulfonamide] |
| 1000 to 30000 nM | 100 to 999 nM | COc1cccc(S(=O)(=O)N2CCN(C(=O)CCC(=O)O)CC2c2cccc(-c3ccncc3C)c2)c1 (stereo not shown) [Compound 46AJ, 4-(4-((3-methoxyphenyl)sulfonyl)-3-(3-(3-methylpyridin-4-yl)phenyl)piperazin-1-yl)-4-oxobutanoic acid] |
| 100 to 999 nM | 1000 to 30000 nM | COc1cnccc1-c1cccc(CCNS(=O)(=O)c2ccccc2C(F)(F)F)c1 [Compound 1CF] |
| < 100 nM | 100 to 999 nM | Cc1cnccc1-c1cccc([C@H](C)N(CCCCC(=O)NCCOCCNC(=O)NCCS(=O)(=O)O)S(=O)(=O)c2cccc(Cl)c2C)c1 [Compound 28AF, (S)-17-((3-chloro-2-methylphenyl)sulfonyl)-18-(3-(3-methylpyridin-4-yl)phenyl)-4,12-dioxo-8-oxa-3,5,11,17-tetraazanonadecane-1-sulfonic acid] |
| < 100 nM | 100 to 999 nM | CC(C)(NS(=O)(=O)c1ccccc1C(F)(F)F)c1cccc(-c2ccncc2CO)c1 [Compound 5AN, N-(2-(3-(3-(hydroxymethyl)pyridin-4-yl)phenyl)propan-2-yl)-2-(trifluoromethyl)benzenesulfonamide] |
| < 100 nM | 1000 to 30000 nM | CC(C)(NS(=O)(=O)c1cccc(C(F)(F)F)c1)c1cccc(-c2ccncc2CO)c1 [Compound 5AE, N-(2-(3-(3-(hydroxymethyl)-pyridin-4-yl)phenyl)propan-2-yl)-3-(trifluoromethyl)benzenesulfonamide] |
| < 100 nM | 100 to 999 nM | Cc1c(Cl)cccc1S(=O)(=O)N(CCCC(=O)NCCS(=O)(=O)O)C(C)(C)c1cccc(-c2ccncc2CO)c1 [Compound 20AO, 2-(4-(3-chloro-N-(2-(3-(3-(hydroxymethyl)pyridin-4-yl)phenyl)propan-2-yl)-2-methylphenylsulfonamido)butanamido)ethanesulfonic acid] |
| 1000 to 30000 nM | 1000 to 30000 nM | CC(=O)Nc1cc(-c2cccc(C(C)(C)NS(=O)(=O)c3cccc(C(F)(F)F)c3)c2)ccn1 [Compound 9, N-(4-(3-(2-(3-(trifluoromethyl)phenylsulfonamido)propan-2-yl)phenyl)pyridin-2-yl)acetamide] |
| < 100 nM | < 100 nM | Cc1cnccc1-c1cccc(C2(NS(=O)(=O)c3cccc(Cl)c3C)COC2)c1 [Compound 7AC, 3-chloro-2-methyl-N-(3-(3-(3-methylpyridin-4-yl)phenyl)oxetan-3-yl)benzenesulfonamide] |
| 100 to 999 nM | 100 to 999 nM | Cc1cnccc1-c1cccc(C2(N(CCCC(=O)O)S(=O)(=O)c3cccc(Cl)c3C)COC2)c1 [Compound 16AL, 4-(3-chloro-2-methyl-N-(3-(3-(3-methylpyridin-4-yl)phenyl)-oxetan-3-yl)phenyl-sulfonamido)butanoic acid] |
| < 100 nM | 1000 to 30000 nM | Cc1cnccc1-c1cccc([C@H](C)N(CCCCN)S(=O)(=O)c2ccccc2C(F)(F)F)c1 [Compound 24, (S)—N-(4-aminobutyl)-N-(1-(3-(3-methylpyridin-4-yl)phenyl)ethyl)-2-(trifluoromethyl)Benzenesulfonamide] |
| 100 to 999 nM | 100 to 999 nM | Cc1cnccc1-c1cccc(C2CNCCN2S(=O)(=O)c2cccc(Cl)c2C)c1 (stereo not shown) [Compound 43AE, 1-((3-chloro-2-methylphenyl)sulfonyl)-2-(3-(3-methylpyridin-4-yl)phenyl)piperazine] |
| < 100 nM | 100 to 999 nM | Cc1cnccc1-c1cccc([C@H](C)N(CCCC(=O)NCCS(=O)(=O)NCC(=O)O)S(=O)(=O)c2ccccc2C)c1 [Compound 20AX, (S)-2-(4-(2-methyl-N-(1-(3-(3-methylpyridin-4-yl)phenyl)ethyl)phenylsulfonamido)butanamidoethylsulfonamido)acetate] |
